# Measurements: paper PMC8309042, “Antimelanogenesis Effects of Leaf Extract and Phytochemicals from Ceylon Olive (Elaeocarpus serratus) in Zebrafish Model” (Pharmaceutics, 2021)
# Read-outs that look alike come from different tables or passages of the source.
# Columns and labels:
# [1] = test system: mushroom tyrosinase; experiment: Enzyme kinetic study (Lineweaver–Burk plot); assay type: biochemical; conditions: for Potential (trend of Vmax with concentration): 0-100 μg/mL; for Inhibition Type: L-tyrosine and L-DOPA substrates, Lineweaver–Burk
# Method: Enzyme kinetic study is analyzed by the Lineweaver–Burk reciprocal plot of the reaction rate and the concentration of the substrate to evaluate the effect of the specimen on the affinity of the substrate and enzyme. […] The reaction was similar to antityrosinase assay as described above; 40 µL of specimen solution and 70 µL of potassium phosphate buffer (0.1 M, pH 6.8) were mixed, which was followed by adding 50 µL of 200 unit/mL tyrosinase, after incubation at 25 °C for 10 min.
# [2] = test system: zebrafish embryo; experiment: Antimelanogenesis effect in zebrafish embryos (melanin content by ImageJ); assay type: in vivo, zebrafish (Danio rerio); conditions: for IC50: Danio rerio, read-out: IC50 of melanogenesis inhibition activity in zebrafish; for effect on melanogenesis of zebrafish: concentration 50 μM
# Method: Zebrafish (Danio rerio) of wild-type AB strain were maintained in a healthy aquatic environment at 26–30 °C, with a 14:10 h light–dark cycle. After 9 h post fertilization (hpf), embryos were placed into a 24-well plate (3 embryos per well), treated with various final concentrations of specimens dissolved in 1% DMSO, and incubated at 28 °C for 48 h (at 57 hpf). The digital image of live zebrafish embryo was taken through a stereomicroscope (Olympus SZ61, Tokyo, Japan) at a total magnification of 40×; then, the melanin content of zebrafish embryo was analyzed by the ImageJ software. […] The number of replications was six.
# [3] = embryos treated 9 hpf to 57 hpf (48 h)
SMILES,Potential (trend of Vmax with concentration) ([1]; L-DOPA substrate),Potential (trend of Vmax with concentration) ([1]; L-Tyrosine substrate),Inhibition Type [1],Inhibition Type ([1]; listed as mearnsetin),"IC50 [2, 3] [µM]",effect on melanogenesis of zebrafish [2],Inhibition Type ([1]; listed as gallic acid),"IC50 ([2]; embryos treated 9 hpf to 57 hpf (48 h), dash defined in footnote) [µM]",IC50 ([2]; 48 h) [µM]
"COc1c(O)cc(-c2oc3cc(O)cc(O)c3c(=O)c2O)cc1O [Mearnsetin, 4′-O-methyl myricetin]",―,―,Competitive,competitive inhibitor,121 ± 0.96,better melanogenesis inhibition activity,,,
O=C(O)c1cc(O)c(O)c(O)c1 [Gallic acid],―,―,Competitive,,,,competitive inhibitor,> 400,
"NC(=S)Nc1ccccc1 [PTU, 1-phenyl-2-thiourea, reference compound]",,,,,,could reduce the melanin formation,,,26.3 ± 4.17
O=c1c(O)c(-c2cc(O)c(O)c(O)c2)oc2cc(O)cc(O)c12 [Myricetin],↓,↓,mixed-type inhibitor,,350 ± 42.7,slight melanin inhibition effect,,,
"OC[C@H]1O[C@@H](Oc2ccc(O)cc2)[C@H](O)[C@@H](O)[C@@H]1O [Arbutin, arbutin, reference compound]",,,,,324 ± 19.8,could reduce the melanin formation,,,
